Measurements published in ChEMBL document CHEMBL1153520, “A multivalent approach to the design and discovery of orally efficacious 5-HT4 receptor agonists” (J Med Chem, 2009).

Assays:
[1] = biological target: T1, 5-hydroxytryptamine receptor 4 (Homo sapiens, UniProt Q13639); test: Intrinsic activity at human 5HT4C receptor expressed in HEK293 cells assessed as accumulation of cAMP by flash plate adenylyl cyclase activation assay relative to serotonin; assay type: functional, cell-based
[2] = biological target: T1, 5-hydroxytryptamine receptor 4; test: Displacement of [H]GR-113808 from human 5HT4C receptor expressed in HEK293 cells by liquid scintillation counting; assay type: cell-based
[3] = biological target: T1, 5-hydroxytryptamine receptor 4; test: Agonist activity at human 5HT4C receptor expressed in HEK293 cells assessed as accumulation of cAMP by flash plate adenylyl cyclase activation assay; assay type: functional, cell-based
[4] = organism: Homo sapiens; test: Selectivity ratio of Ki for human 5HT3A receptor to Ki for human 5HT4C receptor

T1 sequence (Q13639 whole entry): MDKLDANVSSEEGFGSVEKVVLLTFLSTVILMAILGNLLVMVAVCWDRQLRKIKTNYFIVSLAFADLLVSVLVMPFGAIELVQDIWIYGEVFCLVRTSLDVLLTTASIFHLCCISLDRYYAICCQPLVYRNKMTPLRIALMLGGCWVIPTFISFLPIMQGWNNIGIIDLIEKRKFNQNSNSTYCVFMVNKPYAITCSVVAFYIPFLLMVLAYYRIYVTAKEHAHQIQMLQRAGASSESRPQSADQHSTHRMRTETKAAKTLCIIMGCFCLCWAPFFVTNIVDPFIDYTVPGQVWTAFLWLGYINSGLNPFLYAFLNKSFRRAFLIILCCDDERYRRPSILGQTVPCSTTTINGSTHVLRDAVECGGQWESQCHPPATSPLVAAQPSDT

| SMILES | Intrinsic activity [1] | Ki [2] | EC50 [3] | Ratio Ki [4] |
| --- | --- | --- | --- | --- |
| COc1cc(N)c(Cl)cc1C(=O)NC1CCN(CCCCCCCCN2CCCCC2)CC1 | > 100% | 3.16 nM | 3.16 nM | 2000 |
| COc1ccc2[nH]cc(C(=O)N[C@H]3C[C@H]4CC[C@@H](C3)N4)c2c1 | 77% | 3160 nM | 2510 nM | 1.4 |
| COc1cc(N)c(Cl)cc1C(=O)NC1CCN(CCCCCCCCN(C)CCc2c[nH]c3ccccc23)CC1 | > 100% | 1.26 nM | 0.794 nM | 2800 |
| CC(C)n1c(=O)c(C(=O)N[C@H]2C[C@H]3CC[C@@H](C2)N3CCN2CCCCC2)cc2ccccc21 | > 100% | 79.4 nM | 10 nM | 720 |
| CC(C)n1c(=O)n(C(=O)NCCN2CCNCC2)c2ccccc21 | > 100% | 126 nM | 7.94 nM | 1 |
| CCCCCCCCN1CCC(NC(=O)c2cc(Cl)c(N)cc2OC)CC1 | > 100% | 79.4 nM | 39.8 nM | 23 |
| CC(C)n1c(=O)c(C(=O)N[C@H]2C[C@H]3CC[C@@H](C2)N3CCN2CCN(S(C)(=O)=O)CC2)cc2ccccc21 | > 100% | 63.1 nM | 6.31 nM | 450 |
| COc1cc(N)c(Cl)cc1C(=O)NC1CCN(CCCCCO)CC1 | > 100% | 63.1 nM | 15.8 nM | 110 |
| COc1ccc2[nH]cc(C(=O)NCCN3CCNCC3)c2c1 | 0% | 316 nM |  | 25 |
| CCCCCCCCN1[C@@H]2CC[C@H]1C[C@@H](NC(=O)c1cc3ccccc3n(C(C)C)c1=O)C2 | > 100% | 63.1 nM | 39.8 nM | 150 |
| CC(C)n1c(=O)c(C(=O)N[C@H]2C[C@H]3CC[C@@H](C2)N3CCCCCN2CCN(S(C)(=O)=O)CC2)cc2ccccc21 | > 100% | 15.8 nM | 1.26 nM | 2800 |
| COc1cc(N)c(Cl)cc1C(=O)N[C@H]1C[C@H]2CC[C@@H](C1)N2 | 57% | 158 nM | 100 nM | 0.2 |
| COc1cc(N)c(Cl)cc1C(=O)NC1CCN(CCCCCN2CCN(S(C)(=O)=O)CC2)CC1 | > 100% | 39.8 nM | 12.6 nM | 280 |
| CC(C)n1c(=O)c(C(=O)NC2CCNCC2)cc2ccccc21 | > 100% | 3160 nM | 158 nM | 0.14 |
| CC(C)n1c(=O)c(C(=O)NCC2CCNCC2)cc2ccccc21 | > 100% | 794 nM | 100 nM | 1.2 |
| CC(C)n1c(=O)c(C(=O)N[C@H]2C[C@H]3CC[C@@H](C2)N3)cc2ccccc21 | > 100% | 251 nM | 12.6 nM | 0.85 |
| CC(C)n1c(=O)c(C(=O)N[C@H]2C[C@H]3CC[C@@H](C2)N3CCCCCN2CCCCC2)cc2ccccc21 | > 100% | 5.01 nM | 1 nM | 8100 |
| CC(C)n1c(=O)c(C(=O)N[C@H]2C[C@H]3CC[C@@H](C2)N3CCCCCO)cc2ccccc21 | > 100% | 63.1 nM | 25.1 nM | 460 |
| COc1cc(N)c(Cl)cc1C(=O)NC1CCN(CCCCCN2C(=O)c3ccccc3C2=O)CC1 | > 100% | 20 nM | 5.01 nM | 120 |
| CC(C)n1c(=O)n(C(=O)NCC2CCNCC2)c2ccccc21 | 92% | 39.8 nM | 15.8 nM | 0.21 |
| COc1cc(N)c(Cl)cc1C(=O)NCCN1CCNCC1 | > 100% | 1260 nM | 501 nM | 1.1 |
| COc1cc(N)c(Cl)cc1C(=O)NC1CCN(CCCCCN2CCCCC2)CC1 | > 100% | 10 nM | 5.01 nM | 990 |
| COc1ccc2[nH]cc(C(=O)NC3CCNCC3)c2c1 | 0% | 3160 nM |  | 6.7 |
| CC(C)n1c(=O)c(C(=O)N[C@H]2C[C@H]3CC[C@@H](C2)N3CCS(=O)(=O)O)cc2ccccc21 | > 100% | 1000 nM | 6.31 nM | 49 |
| COc1cc(N)c(Cl)cc1C(=O)NC1CCN(CCS(=O)(=O)O)CC1 | > 100% | 25100 nM | 1580 nM | 1.5 |
| CC(C)n1nc(C(=O)N[C@H]2C[C@H]3CC[C@@H](C2)N3)c2ccccc21 | 94% | 63.1 nM | 39.8 nM | 0.092 |

| SMILES | Intrinsic activity [1] | Ki [2] | EC50 [3] | Ratio Ki [4] |
| --- | --- | --- | --- | --- |
| CC(C)n1c(=O)c(C(=O)N[C@H]2C[C@H]3CC[C@@H](C2)N3CCN2C(=O)c3ccccc3C2=O)cc2ccccc21 | > 100% | 1000 nM | 79.4 nM | 55 |
| CC(C)n1c(=O)c(C(=O)N[C@H]2C[C@H]3CC[C@@H](C2)N3CCCCCS(=O)(=O)O)cc2ccccc21 | > 100% | 1580 nM | 12.6 nM | 21 |
| COc1cc(N)c(Cl)cc1C(=O)NC1CCN(CCCCCS(=O)(=O)O)CC1 | 93% | 6310 nM | 398 nM | 0.15 |
| COc1cc(N)c(Cl)cc1C(=O)NC1CCN(CCN2CCN(S(C)(=O)=O)CC2)CC1 | 97% | 126 nM | 20 nM | 21 |
| COc1cc(N)c(Cl)cc1C(=O)NC1CCN(CCN(C)CCc2c[nH]c3ccccc23)CC1 | > 100% | 39.8 nM | 15.8 nM | 290 |
| CC(C)n1c(=O)c(C(=O)N[C@H]2C[C@H]3CC[C@@H](C2)N3CCCCCN(C)CCc2c[nH]c3ccccc23)cc2ccccc21 | > 100% | 3.16 nM | 0.631 nM | 6000 |
| CC(C)n1c(=O)c(C(=O)N[C@H]2C[C@H]3CC[C@@H](C2)N3CCCCCCCCN2CCCCC2)cc2ccccc21 | 99% | 3.16 nM | 1.26 nM | 9900 |
| COc1cc(N)c(Cl)cc1C(=O)NC1CCN(CCCCCCCCN2CCN(S(C)(=O)=O)CC2)CC1 | > 100% | 15.8 nM | 39.8 nM | 330 |
| COc1cc(N)c(Cl)cc1C(=O)NC1CCNCC1 | > 100% | 1580 nM | 398 nM | 0.095 |
| CC(C)n1c(=O)n(C(=O)N[C@H]2C[C@H]3CC[C@@H](C2)N3)c2ccccc21 | > 100% | 316 nM | 15.8 nM | 0.013 |
| COc1cc(N)c(Cl)cc1C(=O)NC1CCN(CCCCCCCCN2C(=O)c3ccccc3C2=O)CC1 | 89% | 39.8 nM | 3.16 nM | 40 |
| COc1cc(N)c(Cl)cc1C(=O)NC1CCN(CCCCCCCCO)CC1 | > 100% | 79.4 nM | 15.8 nM | 29 |
| CCN1CCC(NC(=O)c2cc(Cl)c(N)cc2OC)CC1 | > 100% | 1000 nM | 79.4 nM | 4.2 |
| CC(C)n1c(=O)c(C(=O)N[C@H]2C[C@H]3CC[C@@H](C2)N3CCN(C)CCc2c[nH]c3ccccc23)cc2ccccc21 | 92% | 39.8 nM | 1.26 nM | 480 |
| CC(C)n1c(=O)c(C(=O)N[C@H]2C[C@H]3CC[C@@H](C2)N3CCO)cc2ccccc21 | > 100% | 126 nM | 31.6 nM | 3.2 |
| CC(C)n1nc(C(=O)NC2CCNCC2)c2ccccc21 | 50% | 398 nM | 200 nM | 0.52 |
| COc1ccc2[nH]cc(C(=O)NCC3CCNCC3)c2c1 | 42% | 3980 nM | 6310 nM | 1.1 |
| CCCCCN1CCC(NC(=O)c2cc(Cl)c(N)cc2OC)CC1 | > 100% | 100 nM | 25.1 nM | 33 |
| CC(C)n1c(=O)c(C(=O)N[C@H]2C[C@H]3CC[C@@H](C2)N3CCCCCN2C(=O)c3ccccc3C2=O)cc2ccccc21 | > 100% | 15.8 nM | 25.1 nM | 1200 |
| COc1cc(N)c(Cl)cc1C(=O)NC1CCN(CCN2CCCCC2)CC1 | > 100% | 251 nM | 100 nM | 3.9 |
| CC(C)n1c(=O)c(C(=O)N[C@H]2C[C@H]3CC[C@@H](C2)N3CCCCCCCCN(C)CCc2c[nH]c3ccccc23)cc2ccccc21 | > 100% | 3.16 nM | 1 nM | 2300 |
| COc1cc(N)c(Cl)cc1C(=O)NC1CCN(CCO)CC1 | > 100% | 200 nM | 63.1 nM | 1.9 |
| CC(C)n1c(=O)c(C(=O)N[C@H]2C[C@H]3CC[C@@H](C2)N3CCCCCCCCN2C(=O)c3ccccc3C2=O)cc2ccccc21 | > 100% | 31.6 nM | 50.1 nM | 120 |
| COc1cc(N)c(Cl)cc1C(=O)NC1CCN(CCCCCN(C)CCc2c[nH]c3ccccc23)CC1 | > 100% | 1.58 nM | 1.26 nM | 12000 |
| CC(C)n1c(=O)c(C(=O)N[C@H]2C[C@H]3CC[C@@H](C2)N3CCCCCCCCN2CCN(S(C)(=O)=O)CC2)cc2ccccc21 | > 100% | 15.8 nM | 3.16 nM | 2100 |
| CC(C)n1nc(C(=O)NCC2CCNCC2)c2ccccc21 | 0% | 7.94 nM |  | 3 |
